Data from patent US4732902A, “Pyrroloisoquinolinyl-dimethyloxoalkyl alkonoates and their use as antipsychotic agents” (Hoffmann-La Roche Inc., priority 1986, dated 1988).
“And” between values parts separate entries of the source, which are not always exact repeats. Equal values may be shown once.

Tests used:
[1] = system: male SPF rats (conditioned avoidance response); test: Pole climb avoidance test; assay type: in vivo; conditions: rat; for ED50 / ED (90-100): im, intramuscular in sesame oil; for ED50: at peak of action, read-out: Blockade of Avoidance Response (BAR), acute ED50; for ED (90-100): dose giving 90-100% block within 24 hours, read-out: Blockade of Avoidance Response (BAR), acute 100% BAR dose
Source text: In vivo activity. Pole Climb Avoidance Test. In the pole climb test, antipsychotics characteristically disrupt an acquired discrete conditioned avoidance behavior in doses well below those which suppress the response to unconditioned stimuli (escape). The principle of the test procedure was described by Courvoisier S. et al. (Arch. Int. Pharmacodyn 92, 305, 1954), Cook, L. et al. (Ann. N.Y. Acad. Sci. 66, 740-752, 1957) and Pfeiffer, C. et al. (Ann, N.Y. Acad. Sci. 66, 753-764, 1957).
The animals were male SPF rats (stock Fuellinsdorf Albino, outbred) weighing 200-220 g at the end of a discrete conditioned avoidance training.
The test apparatus was a sound-attenuated plexiglass chamber (41×30×30 cm). The floor was a grid consisting of 27 stainless steel rods, to which a scrambled current of 0,8 mA could be delivered by means of a stimulator. The safety area was a vertical pole (4,3 cm diameter, 24 cm long) attached to the top of the chamber. The free lower end of the pole was 6 cm above the grid floor. A buzzer was mounted within the testing enclosure.
The rats were placed in the plexiglass chamber and trained to jump to the pole during a buzzer stimulus (conditioned stimulus CS) lasting 10 sec, in order to avoid an immediately following electrical footshock (unconditioned stimulus US) of 30 sec duration delivered to the grid floor in addition to the CS. If the rat climbed to the pole during the CS or CS plus US, the stimuli (buzzer, footshock) were immediately terminated.
The pole climb response occurring during the CS period is called an avoidance response or conditioned response (CAR or CR), that occurring during exposure to CS plus US escape response of unconditioned response (UER or UR). Following one training trial (exposure to one CS and US respectively) the rats were returned to their home cage. After 15-17 trials rats were jumping during the buzzer stimulation only and were ready for drug testing.
A group of 10 trained rats was used per dose (graded doses, geometric progression: factor 3.16). The test compounds were administered intramuscularly in a sesame oil solution containing 25 mg of compounds per ml of solution.
Dose-effect curves of block of conditioned response (BCR) were constructed by plotting the log dose against the effect (in percent BCR) at the peak of action. From these curves the ED50 for BCR were graphically determined. The potency of a drug for suppressing CR was expressed by the ED50 for BCR. For the evaluation of the long-term effect, a drug dose eliciting a non-supra-maximal 90-100% block of avoidance response within 24 hours was followed up at 24 hour intervals.

[2] = Esterase cleavage of prodrug esters by incubation with rat liver homogenate; assay type: in vitro ADME; conditions: liver 9000xg supernatant, rat liver 9,000×g supernatant, pH 7.4, 37° C., 0.5 μmole substrate, read-out: Formation of IIa (piquindone) as % of incubated test compound I in 1 hr.
Description: In this test, acetone solutions of the test compounds (0.5 μmole/50 μL) were added to an incubation medium consisting of 2.7 ml 0.1M potassium hydrogenphosphate (pH 7.4) and 0.3 ml rat liver 9,000×g supernatant. The media were then incubated for 1 hour at 37° C. Controls consisted of a sample containing the complete medium and substrate which was not incubated, a sample containing only phosphate buffer and substrate, and a sample containing the complete medium but lacking substrate.
The incubation media were fractionated with a Waters C-18 SEP-PAK. Prior to sample application, the SEP-PAK was washed with 10 ml of methanol and 20 ml of water. After sample application, the SEP-Pak was washed with 10 ml of water and 3 ml of methanol. The amount of the liberated compound of formula II was measured by high pressure liquid chromatography on a 30-cm Waters μ-Bondapak C-18 column, equilibrated with 70:30:1 methanol:water:ammonium hydroxide.

dopamine receptors = molecular target: T1, dopamine receptors (Rattus norvegicus, UniProt P61169); test: 3H-spiroperidol binding test in rat striatal brain homogenates; conditions: 0.2 nanomolar 3H-spiroperidol, 20 min incubation, no esterases, read-out: 3H-Spiroperidol binding in vitro, IC50
T1 construct: rat striatal brain homogenates; from tissue; host or cells: rat striatum (brain homogenate)
T1 sequence (P61169 whole entry): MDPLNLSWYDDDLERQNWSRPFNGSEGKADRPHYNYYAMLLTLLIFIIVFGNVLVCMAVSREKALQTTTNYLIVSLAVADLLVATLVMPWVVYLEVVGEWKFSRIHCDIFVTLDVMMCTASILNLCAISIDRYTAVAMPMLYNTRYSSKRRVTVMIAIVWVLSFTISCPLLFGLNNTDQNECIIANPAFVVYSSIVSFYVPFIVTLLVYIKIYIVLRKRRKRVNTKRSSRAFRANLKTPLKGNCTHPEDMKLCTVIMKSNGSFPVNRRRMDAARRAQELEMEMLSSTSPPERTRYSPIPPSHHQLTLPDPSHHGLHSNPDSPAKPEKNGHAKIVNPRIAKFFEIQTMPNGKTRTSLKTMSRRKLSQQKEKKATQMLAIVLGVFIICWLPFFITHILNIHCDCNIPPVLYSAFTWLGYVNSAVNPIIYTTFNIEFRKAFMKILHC
Description: Spiroperidol binding test. In the absence of esterases which trigger the release of the compound of formula II from the compound of formula I, there is only weak activity in the 3H-spiroperiodol binding assay, an in vitro test which measures binding to dopamine receptors. In this test, rat striatal brain homogenates were incubated for 20 min. in the presence of 0.2 nanomolar ^3 H-spiroperidol and varying concentrations of test compounds. The incubations were terminated by rapid filtration through Whatman GF/B filters. followed by 2×5 mL washes with ice-cold assay buffer (50 mM tribase-HCl pH 7.7 which contains fixed concentrations of 0.1% ascorbic acid, 120 mM sodium chloride, 5 mM potassium chloride, 2 mM calcium chloride, and 1 mM magnesium chloride).

[3] = single i.m. 100% BAR dose in sesame oil

SMILES	ED50 [1]	ED (90-100) [1]	Duration: % BAR, Day 1 [1, 3]	Duration: % BAR, Day 2 [1, 3]	metabolised at 1 h [2]	IC50 (dopamine receptors)	Duration: % BAR, Day 3 ([1]; single i.m. 100% BAR dose in sesame oil, Day 3)	Duration: % BAR, Day 4 ([1]; single i.m. 100% BAR dose in sesame oil, Day 4)	Duration: % BAR, Day 5 ([1]; single i.m. 100% BAR dose in sesame oil, Day 5)	Duration: % BAR, Day 6-13 ([1]; single i.m. 100% BAR dose in sesame oil, Days 6-13)
CCc1c2c(n(C(=O)C(C)(C)CCOC(C)=O)c1C)C[C@H]1CCN(C)C[C@@H]1C2=O (relative stereo) [Ia]	0.6 mg/kg	3 mg/kg	90%	50%	88 ± 2%	0.25 µM	–	–	–	–
CCCCCCCC(=O)OCCC(C)(C)C(=O)n1c(C)c(CC)c2c1C[C@H]1CCN(C)C[C@@H]1C2=O (relative stereo) [Ib, 2,6-Dimethyl-1-[2,2-dimethyl-4-[(1-oxooctyl)oxy]-1-oxobutyl]-3-ethyl-1,4a,5,6,7,8,8a,9-octahydro-4a,8a-trans-4H-pyrrolo[2,3-g]isoquinolin-4-one]	–	–	–	–	104 ± 3.3%	0.195 µM	–	–	–	–
CCCCCCCCCC(=O)OCCC(C)(C)C(=O)n1c(C)c(CC)c2c1C[C@H]1CCN(C)C[C@@H]1C2=O (relative stereo) [Ic, 2,6-Dimethyl-1-[2,2-dimethyl-4-[(1-oxodecyl)oxy]-1-oxo-butyl]-3-ethyl-1,4a,5,6,7,8,8a,9-octahydro-4a,8a-trans-4H-pyrrolo[2,3-g]isoquinolin-4-one]	3.6 mg/kg	10 mg/kg	100%	100%	102%	0.87 µM and 1 µM	100%	90%	80%	50-60%
CCCCCCCCCCCC(=O)OCCC(C)(C)C(=O)n1c(C)c(CC)c2c1C[C@H]1CCN(C)C[C@@H]1C2=O (relative stereo) [Id, 2,6-Dimethyl-1-[2,2-dimethyl-4-[(1-oxododecyl)oxy]-1-oxobutyl]-3-ethyl-1,4a,5,6,7,8,8a,9-octahydro-4a,8a-trans-4H-pyrrolo[2,3-g]isoquinolin-4-one]	–	–	–	–	77.2 ± 0.8%	0.57 µM	–	–	–	–
CCCCCCCCCCCCCCCC(=O)OCCC(C)(C)C(=O)n1c(C)c(CC)c2c1C[C@H]1CCN(C)C[C@@H]1C2=O (relative stereo) [Ie, 2,6-Dimethyl-1-[2,2-dimethyl-4-[(1-oxohexadecyl)oxy]-1-oxobutyl]-3-ethyl-1,4a,5,6,7,8,8a,9-octahydro-4a,8a-trans-4H-pyrrolo[2,3-g]isoquinolin-4-one]	17 mg/kg	30 mg/kg	100%	10%	31 ± 1%	0.64 µM	–	–	–	–
CCCCCCCCCCCCCCCCCC(=O)OCCC(C)(C)C(=O)n1c(C)c(CC)c2c1C[C@H]1CCN(C)C[C@@H]1C2=O (relative stereo) [If, 2,6-Dimethyl-1-[2,2-dimethyl-4-[(1-oxooctadecyl)oxy]-1-oxobutyl]-3-ethyl-1,4a,5,6,7,8,8a,9-octahydro-4a,8a-trans-4H-pyrrolo[2,3-g]isoquinolin-4-one]	16.2 mg/kg	30 mg/kg	100%	10%	12.1 ± 0.4%	1 µM	–	–	–	–
CCCCCCCCCCCCCCCCCCCC(=O)OCCC(C)(C)C(=O)n1c(C)c(CC)c2c1C[C@H]1CCN(C)C[C@@H]1C2=O (relative stereo) [Ig, 2,6-Dimethyl-1-[2,2-dimethyl-4-[(1-oxoeicosanoyl)oxy]-1-oxobutyl]-3-ethyl-1,4a,5,6,7,8,8a,9-octahydro-4a,8a-trans-4H-pyrrolo[2,3-g]isoquinolin-4-one]	13.8 mg/kg	30 mg/kg	100%	10%	11.7 ± 0.7%	1 µM	–	–	–	–
